pEC50, pIC50, pKi: −log10 of the molar value.
system: unidentified influenza virus; test: Antiviral activity against avian influenza virus H5N1; format: functional, organism-based

In the case of `CCC(O)c1cn([C@H]2C=C(C(=O)O)O[C@@H]([C@H](O)[C@H](O)CO)[C@@H]2NC(C)=O)nn1` (some centres not stated), the pEC50 was 5.19.

biological target: Neuraminidase (Influenza A virus, UniProt B4URF0); test: Inhibition of influenza A nuraminidase N1
Sequence (B4URF0 whole entry): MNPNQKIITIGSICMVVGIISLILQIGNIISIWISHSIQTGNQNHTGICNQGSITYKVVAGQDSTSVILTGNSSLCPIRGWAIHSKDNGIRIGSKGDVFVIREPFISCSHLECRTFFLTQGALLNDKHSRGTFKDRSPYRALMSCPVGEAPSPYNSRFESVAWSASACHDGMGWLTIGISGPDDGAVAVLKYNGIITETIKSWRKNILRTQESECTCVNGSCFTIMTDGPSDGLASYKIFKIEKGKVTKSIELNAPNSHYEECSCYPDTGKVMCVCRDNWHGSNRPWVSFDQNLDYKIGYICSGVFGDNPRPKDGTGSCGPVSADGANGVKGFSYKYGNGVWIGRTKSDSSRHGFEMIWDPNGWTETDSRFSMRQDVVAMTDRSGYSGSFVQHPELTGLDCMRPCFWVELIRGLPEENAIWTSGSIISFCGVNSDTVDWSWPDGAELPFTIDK

Going from `CCC(CC)O[C@@H]1CC(C(=O)O)=C[C@H](n2cc(CCc3ccccc3)nn2)[C@H]1NC(C)=O` to `CCC(CC)O[C@@H]1CC(C(=O)O)=C[C@H](n2cc(CCCO)nn2)[C@H]1NC(C)=O`, the pKi rises from 5.92 to 6.34 (0.42 log units).

First: CCC(CC)O[C@@H]1CC(C(=O)O)=C[C@H](n2cc(C(O)CC)nn2)[C@H]1NC(C)=O (some centres not stated)
Second: CCC(CC)O[C@@H]1CC(C(=O)O)=C[C@H](n2cc(C(C)(C)O)nn2)[C@H]1NC(C)=O
The pKi of the first is 0.25 log units higher: 7.14 for the first, 6.89 for the second.

Compared with `CCC(CC)O[C@@H]1CC(C(=O)O)=C[C@H](NC(=N)N)[C@H]1NC(C)=O`, `CCC(CC)O[C@@H]1CC(C(=O)O)C=C(n2cc(C(C)(C)O)nn2)[C@H]1NC(C)=O` (mixture of isomers) is 4.62 log units lower in pKi: 9.34 for the first, 4.72 for the second.

First: CCC(CC)O[C@@H]1CC(C(=O)O)=C[C@H](n2cc([C@]3(O)CC[C@H]4[C@@H]5CCc6cc(O)ccc6[C@H]5CC[C@@]43C)nn2)[C@H]1NC(C)=O
Second: CCC(CC)O[C@@H]1CC(C(=O)O)C=C(n2cc(CCc3ccccc3)nn2)[C@H]1NC(C)=O (mixture of isomers)
The pKi of the first is 1.02 log units higher: 5.24 for the first, 4.22 for the second.

`CC(=O)N[C@H]1[C@H]([C@H](O)[C@H](O)CO)OC(C(=O)O)=C[C@@H]1O` [NEU5AC2EN] was tested, and the pKi was 5.23.

Going from `CCC(CC)O[C@@H]1CC(C(=O)O)=C[C@H](n2cc(C3(O)CCCCC3)nn2)[C@H]1NC(C)=O` to `CCC(CC)O[C@@H]1CC(C(=O)O)=C[C@H](n2cc(C3(O)CCCC3)nn2)[C@H]1NC(C)=O`, the pIC50 falls from 5.32 to 4.96 (0.36 log units). The first is the more potent here.

Reference: ChEMBL document CHEMBL1268913, “Carbocycles related to oseltamivir as influenza virus group-1-specific neuraminidase inhibitors. Binding to N1 enzymes in the context of virus-like particles” (J Med Chem, 2010)
